# According to US9328085B2, “Heterocyclic compounds and expansion agents for hematopoietic stem cells” (NISSAN CHEMICAL INDUSTRIES, LTD., priority 2009, dated 2016):
# How the values were obtained:
# CD34^+CD38^− cells = experiment: Expansion of CD34+CD38- cells using human cord blood-derived CD34+ cells (Assay Example 1); type: cell-based; details: for Expansion efficiency (CD34^+CD38^− cells): 100 ng/mL SCF, 7 days, based on the number of CD34^+CD38^− cells in the absence of compound; for Comparison with TPO: 3 μg/mL compound vs TPO 10 ng/mL, CD34^+CD38^− cells
# Method: (§1) Human cord blood-derived CD34^+ cells were purchased from Lonza and plated on a 24-well plate (Corning) (10000 cells/1 mL/well). As the culture medium, StemSpan SFEM (StemCell Technologies) containing 100 ng/mL SCF (Wako Pure Chemical Industries) was used, and one of Compounds No. 1 to 72 dissolved in dimethyl sulfoxide was added in an amount of 0.1% (v/v) to a final concentration of 1 or 3 μg/mL. As a positive control, TPO (PeproTech) was used at a final concentration of 10 ng/mL.
# (§2) After the cells were incubated in liquid culture at 37° C. for 7 days in a CO2 incubator (5% CO2), the number of viable cells was counted by trypan blue assay. The number of CD34^+CD38^− cells was calculated as follows. After the incubation, the cells in the liquid culture was stained with a CD34 antibody (APC, Becton, Dickinson and Company) and a CD38 antibody (PE, Becton, Dickinson and Company), then washed with PBS(−) containing 2% (v/v) FBS and stained with propidium iodide (Sigma-Aldrich Japan) added to a final concentration of 5 μg/mL. The stained cells were analyzed with a BD FACSCANTO™ II flow cytometer (Becton, Dickinson and Company) to determined the proportions of CD34^+ cells and CD34^+CD38^− cells, which was multiplied by the number of viable cells to calculate the numbers of CD34^+ cells and CD34^+CD38^− cells.
# (§3) The expansion efficiencies in the presence of 1 or 3 μg/mL of compounds based on the number of CD34^+ cells in the absence of them are shown in Tables 3-1 and 3-2 on a scale of A for expansion efficiencies of 6 or greater, B for expansion efficiencies of at least 4 and less than 6, and C for expansion efficiencies of at least 2 and less than 4. The expansion efficiencies in the presence of 1 or 3 μg/mL of compounds based on the number of CD34^+CD38^− cells in the absence of them are shown in Tables 4-1 and 4-2 on a scale of A for expansion efficiencies of 10 or greater, B for expansion efficiencies of at least 5 and less than 10, and C for expansion efficiencies of at least 3 and less than 5. Further, in Table 3, the compounds with an expansion efficiency twice or more greater than that of TPO are marked with O.
# CD34^+ cells = experiment: Expansion of CD34+ cells using human cord blood-derived CD34+ cells (Assay Example 1); type: cell-based; details: 100 ng/mL SCF, 7 days, based on the number of CD34^+ cells in the absence of compound
# Method: as §1, §2, §3
SMILES,Expansion efficiency (CD34^+CD38^− cells) (CD34^+CD38^− cells; 3 μg/mL compound),Expansion efficiency (CD34^+ cells) (CD34^+ cells; 3 μg/mL compound),Comparison with TPO (CD34^+CD38^− cells),Expansion efficiency (CD34^+CD38^− cells) (CD34^+CD38^− cells; 1 μg/mL compound),Expansion efficiency (CD34^+ cells) (CD34^+ cells; 1 μg/mL compound)
CCCCOCCOCCNC(=O)c1ccc(CNC(=O)c2ccc(C(=O)NN=C(C)c3csc(-c4ccc(Cl)c(Cl)c4)c3O)s2)cc1 [compound 34],B (B for expansion efficiencies of at least 5 and less than 10),C (C for expansion efficiencies of at least 2 and less than 4),–,–,–
CC(=NNC(=O)c1ccc(C(=O)NCc2ccc(C(=O)NCCO)cc2)s1)c1csc(-c2ccc(Cl)c(Cl)c2)c1O [compound 13],A (A for expansion efficiencies of 10 or greater),A (A for expansion efficiencies of 6 or greater),∘,–,–
CC(=NNC(=O)c1ccc(C(=O)NCc2ccc(C(=O)NCc3ccccn3)cc2)s1)c1csc(-c2ccc(Br)cc2)c1O [Compound No. 6],C (C for expansion efficiencies of at least 3 and less than 5),–,–,–,–
CCCCOCCOCCNC(=O)c1ccc(CNC(=O)c2ccc(C(=O)NN=C(C)c3csc(-c4ccc(C(C)(C)C)cc4)c3O)s2)cc1 [compound 35],B (B for expansion efficiencies of at least 5 and less than 10),C (C for expansion efficiencies of at least 2 and less than 4),–,–,–
CC(=NNC(=O)c1ccc(C(=O)NCc2ccc(C(=O)NCc3ccco3)cc2)s1)c1csc(-c2ccc(Br)cc2)c1O [compound 9],B (B for expansion efficiencies of at least 5 and less than 10),C (C for expansion efficiencies of at least 2 and less than 4),–,–,–
CC(=NNC(=O)c1ccc(C(=O)NCc2ccc(C(=O)NCCO)cc2)s1)c1csc(-c2ccc(Br)cc2)c1O [compound 15],A (A for expansion efficiencies of 10 or greater),A (A for expansion efficiencies of 6 or greater),∘,–,–
CC(=O)NCc1ccc(CNC(=O)c2ccc(C(=O)NN=C(C)c3csc(-c4ccc(Cl)c(Cl)c4)c3O)s2)cc1 [compound 52],–,–,–,A (A for expansion efficiencies of 10 or greater),A (A for expansion efficiencies of 6 or greater)
CC(=O)NCc1ccc(CNC(=O)c2ccc(C(=O)NN=C(C)c3csc(-c4ccc(C(C)(C)C)cc4)c3O)s2)cc1 [compound 53],–,–,–,B (B for expansion efficiencies of at least 5 and less than 10),C (C for expansion efficiencies of at least 2 and less than 4)
CC(=NNC(=O)c1ccc(C(=O)NCc2ccc(C(=O)NCCN3CCNCC3)cc2)s1)c1csc(-c2ccc(C(C)(C)C)cc2)c1O [compound 29],A (A for expansion efficiencies of 10 or greater),A (A for expansion efficiencies of 6 or greater),∘,–,–
CC(=NNC(=O)c1ccc(C(=O)NCc2ccc(C(=O)NCCN3CCNCC3)cc2)s1)c1csc(-c2ccc(Cl)c(Cl)c2)c1O [compound 28],A (A for expansion efficiencies of 10 or greater),B (B for expansion efficiencies of at least 4 and less than 6),–,–,–
CC(=O)NCc1ccc(CNC(=O)c2ccc(C(=O)NN=C(C)c3csc(-c4ccc(Br)cc4)c3O)s2)cc1 [compound 54],–,–,–,A (A for expansion efficiencies of 10 or greater),A (A for expansion efficiencies of 6 or greater)
CC(=NNC(=O)c1ccc(C(=O)NCc2ccc(C(=O)NCCN(CCO)CCO)cc2)s1)c1csc(-c2ccc(Br)cc2)c1O [compound 24],A (A for expansion efficiencies of 10 or greater),A (A for expansion efficiencies of 6 or greater),∘,–,–
CC(=NNC(=O)c1ccc(C(=O)NCc2ccc(C(=O)NCCOCCO)cc2)s1)c1csc(-c2ccc(Cl)c(Cl)c2)c1O [compound 59],A (A for expansion efficiencies of 10 or greater),B (B for expansion efficiencies of at least 4 and less than 6),∘,–,–
